The record followed here is PubChem BioAssay (NCI).

Where “and” joins values, the source holds several entries; their conditions need not be identical. Equal entries are not always repeated.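 Five concentrations, 48 hours, 96-well plates. The concentration for 50% growth inhibition is given as GI50. TGI marks complete inhibition of growth.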 Bounds are passed on as bounds.

For one assay, the system named is HCC-2998 colon. Kind of assay: NCI-60 cell line screen, 48 h.
Turning to `CCOC1Oc2ccccc2C(=O)/C1=C/Nc1ccc(C(C)=O)cc1` (configuration not stated), the GI50 was 15.9 µM and the TGI is 35.4 µM.

For the molecule `COC1/C=C/OC2(C)Oc3c(C)c(O)c4c(O)c(c(/C=N/Nc5ccc([N+](=O)[O-])cc5[N+](=O)[O-])c(O)c4c3C2=O)NC(=O)C(C)=C/C=C/C(C)C(O)C(C)C(O)C(C)C(OC(C)=O)C1C` (configuration not stated), the GI50 was 5.05 µM and the TGI was 11.6 µM.

Molecule `Cc1cc(NS(=O)(=O)c2ccc(Nc3c4ccccc4nc4c(C(=O)N5CCN(CCOS(C)(=O)=O)CC5)cccc34)cc2)no1` gave a TGI above 100 µM.

In the case of `C=CCO[C@H]1CO[C@H]2[C@@H]1OC[C@@H]2Oc1ccc(Nc2ccnc(Nc3ccc(O[C@H]4CO[C@H]5[C@@H]4OC[C@@H]5OCC=C)c(Cl)c3)n2)cc1Cl`, the GI50 is 1.94 µM and the TGI was found to be 3.43 µM.

In turn, `O=C(O)CCC(NC(=O)c1ccc(Nc2nc3ccccc3nc2-c2cccs2)cc1)C(=O)O` (configuration not stated) came in with a TGI above 100 µM.

For `COc1ccc2c(c1)sc1nc(-c3ccccc3)c(-c3cccc4ccccc34)n12`, the GI50 is 1.53 µM and the TGI is 36.6 µM.

Molecule `C[N+](C)(C)CC(=O)N/N=C(/CC(=O)CC(C1=C(O)c2ccccc2OC1)c1ccccc1)C(=O)Nc1cccc(Cl)c1` (configuration not stated) yielded a TGI above 100 µM.

With `CCN(CC)N=Nc1c(C(N)=O)n[nH]c1C`, the TGI was above 100 µM.

`COc1cc2ccnc([C@@H](OC(=O)c3ccccc3)c3ccc(OC)c(OC)c3OC)c2cc1OC` had a TGI above 100 µM.

Regarding `Cc1ccc(NC(=O)Nc2ccc(-c3cccnc3)cc2N2CCC(CO)CC2)cc1`, the GI50 is 3.21 µM and the TGI was above 100 µM.

For the molecule `O=C(O)CCNCCCNCCC(=O)O`, the TGI was above 100 µM.

On to `CC(=O)[CH-]C(=O)c1ccccc1.CC(=O)[CH-]C(=O)c1ccccc1.CN(C)c1ccc([O-])cc1.CN(C)c1ccc([O-])cc1.Cl.[Ti+4]`, for which the GI50 was 20.7 µM and the TGI was above 31.6 µM.

Turning to `NC1=NCCC1(c1ccccc1)c1ccccn1` (configuration not stated), the TGI was above 100 µM.

In the case of `CCCCCCCCCCCC(=O)OCCOCCOCCOCCOCCOCc1ccccc1`, the TGI was above 100 µM.

For the molecule `CCCCCCCCCCCCCC(=O)OC(/C=C/C(C)C)C(O)C(O)C(OC)C(=O)NC1CCCCN(C)C1=O` (configuration not stated), the TGI was 5.54 µM and > 49 µM.

The molecule `CCOC(=O)CCC1(C(=O)OCC)CCCCC1=O` (configuration not stated) showed a TGI above 100 µM.

Regarding `CCCC1C(=O)CCc2c(OC)ccc(OC)c21` (configuration not stated), the TGI is above 100 µM.

As for `NC(=O)NO.O.O.O.O.O.O.O.O.O.O.O.[Ge].[Ge].[Ge].[Ge].[Ge].[O]=[Ge].[O]=[Ge].[O]=[Ge].[O]=[Ge].[O]=[Ge][OH]`, the TGI was above 100 µM.

On to `O=C(Nc1nc2ccc([N+](=O)[O-])cc2s1)C(=O)C(C1OC(=O)c2ccccc21)[N+](=O)[O-]` (configuration not stated), for which the TGI was above 100 µM.

In turn, `COc1cc2cc(OC)c3cc4c(cc3c2c(OC)c1OC)OCO4` had a TGI of 25.8 µM.

As for `COc1cc2c(cc1OCCCCN1CCN(CC(=O)Nc3ccc(Cl)cc3C(=O)c3ccccc3Cl)CC1)N=CC1CCCN1C2=O` (configuration not stated), the GI50 was 0.194 µM and the TGI is 0.343 µM.

For the molecule `C[C@@H](Oc1cc(-n2cnc3ccc(CN4CCN(C)CC4)cc32)sc1C(N)=O)c1ccccc1C(F)(F)F`, the GI50 is < 0.0161 µM and 0.0397 µM.

The subject of the next assay is HL-60(TB) leukemia. Kind of assay: NCI-60 cell line screen, 48 h.
`Cc1cc(NS(=O)(=O)c2ccc(Nc3c4ccccc4nc4c(C(=O)N5CCN(CCOS(C)(=O)=O)CC5)cccc34)cc2)no1`: the TGI is above 100 µM.

In the case of `C=CCO[C@H]1CO[C@H]2[C@@H]1OC[C@@H]2Oc1ccc(Nc2ccnc(Nc3ccc(O[C@H]4CO[C@H]5[C@@H]4OC[C@@H]5OCC=C)c(Cl)c3)n2)cc1Cl`, the GI50 was 1.62 µM and the TGI came out at 3.78 µM.

`O=C(O)CCC(NC(=O)c1ccc(Nc2nc3ccccc3nc2-c2cccs2)cc1)C(=O)O` (configuration not stated) showed a TGI above 100 µM.

Regarding `COc1ccc2c(c1)sc1nc(-c3ccccc3)c(-c3cccc4ccccc34)n12`, the GI50 was 0.148 µM.

With `C[N+](C)(C)CC(=O)N/N=C(/CC(=O)CC(C1=C(O)c2ccccc2OC1)c1ccccc1)C(=O)Nc1cccc(Cl)c1` (configuration not stated), the TGI is above 100 µM.

Regarding `COc1cc2ccnc([C@@H](OC(=O)c3ccccc3)c3ccc(OC)c(OC)c3OC)c2cc1OC`, the TGI was above 100 µM.

As to `Cc1ccc(NC(=O)Nc2ccc(-c3cccnc3)cc2N2CCC(CO)CC2)cc1`, the GI50 is 2.64 µM and the TGI came out at 7.38 µM.

In the case of `O=C(O)CCNCCCNCCC(=O)O`, the TGI is above 100 µM.

For the molecule `CC(=O)[CH-]C(=O)c1ccccc1.CC(=O)[CH-]C(=O)c1ccccc1.CN(C)c1ccc([O-])cc1.CN(C)c1ccc([O-])cc1.Cl.[Ti+4]`, the GI50 is 20.9 µM and the TGI is above 31.6 µM.

Molecule `NC1=NCCC1(c1ccccc1)c1ccccn1` (configuration not stated) showed a TGI above 100 µM.

Molecule `CCCCCCCCCCCC(=O)OCCOCCOCCOCCOCCOCc1ccccc1` registered a TGI above 100 µM.

In the case of `CCCCCCCCCCCCCC(=O)OC(/C=C/C(C)C)C(O)C(O)C(OC)C(=O)NC1CCCCN(C)C1=O` (configuration not stated), the TGI is 5.49 µM and 10.4 µM and > 49 µM.

Turning to `CCOC(=O)CCC1(C(=O)OCC)CCCCC1=O` (configuration not stated), the TGI was above 100 µM.

In turn, `CCCC1C(=O)CCc2c(OC)ccc(OC)c21` (configuration not stated) gave a TGI above 100 µM.

In turn, `NC(=O)NO.O.O.O.O.O.O.O.O.O.O.O.[Ge].[Ge].[Ge].[Ge].[Ge].[O]=[Ge].[O]=[Ge].[O]=[Ge].[O]=[Ge].[O]=[Ge][OH]` came in with a TGI of 12.6 µM.

`O=C(Nc1nc2ccc([N+](=O)[O-])cc2s1)C(=O)C(C1OC(=O)c2ccccc21)[N+](=O)[O-]` (configuration not stated) yielded a TGI above 100 µM.

`COc1cc2cc(OC)c3cc4c(cc3c2c(OC)c1OC)OCO4` gave a TGI of 45.7 µM.

For the molecule `COc1cc2c(cc1OCCCCN1CCN(CC(=O)Nc3ccc(Cl)cc3C(=O)c3ccccc3Cl)CC1)N=CC1CCCN1C2=O` (configuration not stated), the GI50 was 0.273 µM.

On to `C[C@@H](Oc1cc(-n2cnc3ccc(CN4CCN(C)CC4)cc32)sc1C(N)=O)c1ccccc1C(F)(F)F`, for which the GI50 is < 0.01 µM and 0.00595 µM; the TGI was below 0.0179 µM.

In another assay the test system is HS 578T breast. In words: NCI-60 cell line screen, 48 h.
Regarding `CCOC1Oc2ccccc2C(=O)/C1=C/Nc1ccc(C(C)=O)cc1` (configuration not stated), the GI50 is 17.9 µM and the TGI is 52 µM.

For the molecule `COC1/C=C/OC2(C)Oc3c(C)c(O)c4c(O)c(c(/C=N/Nc5ccc([N+](=O)[O-])cc5[N+](=O)[O-])c(O)c4c3C2=O)NC(=O)C(C)=C/C=C/C(C)C(O)C(C)C(O)C(C)C(OC(C)=O)C1C` (configuration not stated), the GI50 was 0.97 µM and the TGI was 3.59 µM.

In the case of `COc1ccc2c(c1)sc1nc(-c3ccccc3)c(-c3cccc4ccccc34)n12`, the TGI was above 100 µM.

As for `CCN(CC)N=Nc1c(C(N)=O)n[nH]c1C`, the TGI was above 100 µM.

Turning to `Cc1ccc(NC(=O)Nc2ccc(-c3cccnc3)cc2N2CCC(CO)CC2)cc1`, the GI50 is 1.7 µM and the TGI came out at 6.4 µM.

As to `C[C@@H](Oc1cc(-n2cnc3ccc(CN4CCN(C)CC4)cc32)sc1C(N)=O)c1ccccc1C(F)(F)F`, the GI50 was 0.0853 µM and 0.035 µM; the TGI came to 2.53 µM.
